Test results reported in ChEMBL document CHEMBL1201862, “PubChem BioAssay data set” (2004).
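The compound was tested at five concentrations on cells cultured in 96-well plates, with a 48-hour exposure period. GI50 is the concentration that inhibits growth by half.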 Active and inactive are the calls of the source. No stated cut-off is given here; in the data, active = GI50 up to about 1.1 µM and inactive = higher.

Experiments:
Test in all cases: NCI tumour cell line growth inhibition, 48 h
[1] = system: OVCAR-3
[2] = system: LOX IMVI
[3] = system: ACHN
[4] = system: MCF7
[5] = system: RPMI-8226
[6] = system: EKVX
[7] = system: UO-31
[8] = system: BT-549
[9] = system: MDA-MB-231
[10] = system: SW-620
[11] = system: HT-29
[12] = system: RXF 393
[13] = system: NCI-H522
[14] = system: A549
[15] = system: NCI-H226
[16] = system: TK-10
[17] = system: CCRF-CEM
[18] = system: OVCAR-5
[19] = system: Hs-578T
[20] = system: T47D
[21] = system: U-251
[22] = system: HCT-15
[23] = system: SK-MEL-5
[24] = system: SF-539
[25] = system: OVCAR-4
[26] = system: IGROV-1
[27] = system: SK-OV-3
[28] = system: Malme-3M
[29] = system: SF-295
[30] = system: SNB-75
[31] = system: 786-0
[32] = system: SN12C
[33] = system: SK-MEL-28
[34] = system: M14
[35] = system: SF-268
[36] = system: OVCAR-8
[37] = system: MDA-N
[38] = system: CAKI-1
[39] = system: PC-3
[40] = system: KM12
[41] = system: UACC-257
[42] = system: HCT-116
[43] = system: HOP-62
[44] = system: MDA-MB-435
[45] = system: NCI-H460
[46] = system: A498
[47] = system: NCI-H23
[48] = system: SK-MEL-2
[49] = system: UACC-62
[50] = system: NCI/ADR-RES
[51] = system: HL-60
[52] = system: HOP-92
[53] = system: COLO 205
[54] = system: SNB-19
[55] = system: K562
[56] = system: SR
[57] = system: MOLT-4

CCOc1ccc(NC(=O)C(=O)C2C(=O)Nc3ccccc3[S+]2[O-])cc1 (configuration not stated)
GI50 [1]: > 100 µM (inactive)
GI50 [2]: > 100 µM (inactive)
GI50 [3]: > 100 µM (inactive)
GI50 [4]: > 100 µM (inactive)
GI50 [5]: > 100 µM (inactive)
GI50 [6]: 85.9 µM (inactive)
GI50 [7]: > 100 µM (inactive)
GI50 [8]: > 100 µM (inactive)
GI50 [9]: > 100 µM (inactive)
GI50 [10]: > 100 µM (inactive)
GI50 [11]: > 100 µM (inactive)
GI50 [12]: > 100 µM (inactive)
GI50 [13]: > 100 µM (inactive)
GI50 [14]: > 100 µM (inactive)
GI50 [15]: > 100 µM (inactive)
GI50 [16]: > 100 µM (inactive)
GI50 [17]: > 100 µM (inactive)
GI50 [18]: > 100 µM (inactive)
GI50 [19]: > 100 µM (inactive)
GI50 [20]: > 100 µM (inactive)
GI50 [21]: > 100 µM (inactive)
GI50 [22]: > 100 µM
GI50 [23]: > 100 µM (inactive)
GI50 [24]: > 100 µM (inactive)
GI50 [25]: 89.7 µM (inactive)
GI50 [26]: 55.6 µM (inactive)
GI50 [27]: > 100 µM (inactive)
GI50 [28]: > 100 µM (inactive)
GI50 [29]: > 100 µM (inactive)
GI50 [30]: 95.1 µM (inactive)
GI50 [31]: > 100 µM (inactive)
GI50 [32]: > 100 µM (inactive)
GI50 [33]: > 100 µM (inactive)
GI50 [34]: > 100 µM (inactive)
GI50 [35]: > 100 µM (inactive)
GI50 [36]: > 100 µM (inactive)
GI50 [37]: > 100 µM (inactive)
GI50 [38]: > 100 µM (inactive)
GI50 [39]: > 100 µM (inactive)
GI50 [40]: > 100 µM (inactive)
GI50 [41]: > 100 µM (inactive)
GI50 [42]: > 100 µM (inactive)
GI50 [43]: > 100 µM (inactive)
GI50 [44]: > 100 µM (inactive)
GI50 [45]: > 100 µM (inactive)
GI50 [46]: > 100 µM (inactive)
GI50 [47]: > 100 µM (inactive)
GI50 [48]: > 100 µM (inactive)
GI50 [49]: > 100 µM (inactive)
GI50 [50]: > 100 µM (inactive)
GI50 [51]: > 100 µM (inactive)
GI50 [52]: > 100 µM (inactive)

CCOC(=O)c1nc2ccc(C(F)(F)F)cc2nc1NCc1ccc(Cl)c(Cl)c1
GI50 [1]: 23.3 µM (inactive)
GI50 [2]: 30.8 µM (inactive)
GI50 [3]: 22.5 µM (inactive)
GI50 [4]: 30.4 µM (inactive)
GI50 [53]: 31.8 µM (inactive)
GI50 [5]: > 100 µM (inactive)
GI50 [6]: 22.8 µM (inactive)
GI50 [7]: 45 µM (inactive)
GI50 [8]: 37 µM (inactive)
GI50 [9]: 30.2 µM (inactive)
GI50 [10]: 40 µM (inactive)
GI50 [11]: 29.1 µM (inactive)
GI50 [12]: 24.4 µM (inactive)
GI50 [13]: 11.4 µM (inactive)
GI50 [14]: 35.2 µM (inactive)
GI50 [15]: 30.8 µM (inactive)
GI50 [16]: 34.2 µM (inactive)
GI50 [17]: > 100 µM (inactive)
GI50 [18]: > 100 µM (inactive)
GI50 [54]: 28.3 µM (inactive)
GI50 [19]: 20.8 µM (inactive)
GI50 [20]: 44.5 µM (inactive)
GI50 [21]: 58.6 µM (inactive)
GI50 [22]: 36.1 µM
GI50 [23]: 31.9 µM (inactive)
GI50 [24]: 61.9 µM (inactive)
GI50 [25]: 21 µM (inactive)
GI50 [26]: 20.7 µM (inactive)
GI50 [27]: 35.2 µM (inactive)
GI50 [28]: 21.8 µM (inactive)
GI50 [29]: 29.8 µM (inactive)
GI50 [30]: 14 µM (inactive)
GI50 [31]: 25.1 µM (inactive)
GI50 [34]: 36.9 µM (inactive)
GI50 [35]: 39.9 µM (inactive)
GI50 [36]: 37.1 µM (inactive)
GI50 [37]: 57.4 µM (inactive)
GI50 [38]: 24.9 µM (inactive)
GI50 [39]: 22.8 µM (inactive)
GI50 [40]: 28.7 µM (inactive)
GI50 [55]: 80 µM (inactive)
GI50 [41]: 42.4 µM (inactive)
GI50 [42]: 27 µM (inactive)
GI50 [43]: 21.1 µM (inactive)
GI50 [44]: 23.6 µM (inactive)
GI50 [56]: 37.9 µM (inactive)
GI50 [45]: 45.6 µM (inactive)
GI50 [46]: 30.2 µM (inactive)
GI50 [47]: 40 µM (inactive)
GI50 [48]: 63.8 µM (inactive)
GI50 [57]: > 100 µM (inactive)
GI50 [49]: 30 µM (inactive)
GI50 [50]: 47.1 µM (inactive)
GI50 [51]: 41.5 µM (inactive)
GI50 [52]: 14.6 µM (inactive)
